Results taken from patent US20250388571A1, “AMP-ACTIVATED PROTEIN KINASE MODULATOR COMPOUNDS AND USES THEREOF” (Biolexis Therapeutics, Inc., priority 2024, published 2025).
Like-named read-outs stand apart in the source and are kept apart here.

Columns and labels:
HepG2 cells = assay: CyQUANT Cytotoxicity Assay (G6PD assay), HepG2; conditions: treated 2 hours
db/db mice = conditions: for Plasma Cholesterol / Plasma HDL / Plasma LDL / Plasma Triglyceride: end of the study; for Absolute Liver Weight / Absolute Liver Weight (g) [table follows b2014 on epididymal adipose tissue weight] / Relative Epididymal Tissue Weight / Relative Liver Weight: necropsy; for Fasting Plasma Glucose (mg/dL), OGTT: OGTT day 21, before glucose load 1 gram/kg
Method: The doses of the test item to be administered were calculated daily in mg/kg based on the latest bodyweight of the animal. The dose volume was calculated based on mg/kg of body weight and adjusted with each bodyweight collection. Dose and route of the test compounds administration are selected as per the supporting literature.
Male db/db mice were procured from The Jackson Laboratory. All the animals were allowed to quarantine for 7 days and acclimatize for one day prior to experiment initiation. During this period, mice were observed daily once for clinical signs. On Day 1, Animals were randomized based on body weight and blood glucose levels (Accu-Chek) into three groups. […] During the study period the body weight of mice was recorded weekly thrice, and clinical scoring was done on daily basis. The OGTT was performed on day 21. On day 36 blood was collected and centrifuged at 4° C., 10,000 RPM for 10 minutes for plasma collection. The plasma stored at −80° C. for estimation of plasma HDL and LDL. All the animals were humanely sacrificed by CO2. At the time of necropsy liver, adipose tissue and pancreas weight were taken. The liver and pancreas were stored at −80° C.
A mixture of DMSO (2%), Cremophor EL (2%), Tween 80 (1%), 0.5% methyl cellulose (35%), and water (60%) was used for the formulation. Doses were prepared at concentrations of 30 and 50 mg/kg. Administration was oral, daily for 36 days. Male mice (Mus musculus; db/db C57BL/6) aged 8-9 weeks and weighing less than or equal to 40 grams were used for the study. Groups were assigned 10 mice per group.
During the study period body weight of mice were recorded weekly thrice and clinical scoring were done on daily basis. The OGTT was performed on day 21. On day 36 blood was collected and centrifuged at 4° C., 10000 RPM for 10 minutes for plasma collection. The plasma stored at −80° C. for estimation of plasma HDL and LDL. All the animals were humanely sacrificed by CO2. At the time of necropsy liver, adipose tissue and pancreas weight were taken. Liver and pancreas were stored at −80° C.
Cage-side observations were made to detect any changes and general activity of the animals.
Body weight of each mouse was recorded at the time of randomization and thrice a week during study period. OGTT were done at day 21. On day 20 mice were fasted over night and on day 21 mice were treated with respective treatment-60 minute prior to glucose load 1 gram/kg. Plasma glucose was measured at 0 min (before glucose load), 15 min, 30 min, 60 min, 90 min and 120 min.
Glucose estimation in urine was done at terminal point on day 32. The urine of individual mice was collected by placing the mice in metabolic cages. Urine glucose levels were measured by calorimetric method in collected urine.
Plasma lipid profile: Triglyceride, HDL and LDL were performed at the end of the study by appropriate kit or using Fully Auto Biochemistry Analyzer Selectra PRO M Lite. Fat pad weight was recorded at terminal point. Fructosamine were measured by ELISA kit (Biomol, G-MOEB2562.96).
All data is expressed as mean±SEM unless otherwise noted. Statistical analysis was done with GraphPad Prism-5 using one-way ANOVA followed by Dunnett's test/Tukey's post hoc test. Data were considered statistically significant if P value is less than 0.05.

HCM cells = assay: CyQUANT Cytotoxicity Assay (G6PD assay), HCM; conditions: treated 2 hours
[1] = tested on: AMPK signal pathway in human cardiac myocytes (HCM); assay: Western blot assay, human cardiomyocytes; assay type: cell-based

## O=c1[nH]c(-c2c[nH]c3cc(F)c(-c4ccc(C5(O)CCC5)cc4)c(F)c23)no1 [Compound I-11, 3-(4,6-difluoro-5-(4-(1-hydroxycyclobutyl)phenyl)-1H-indol-3-yl)-1,2,4-oxadiazol-5(4H)-one]
HepG2 cells
  toxicity compared to reference compounds MK-8722 and PF-06409577 (G6PD release): less toxicity
db/db mice; 30 mg/kg p.o. QD
  Fasting Fructosamine: 1164.8 ± 105.5 ng/mL
  Fasting Plasma HbA1c: 60.13 ± 7.73 ng/mL
  Fasting Plasma Insulin: 4.6 ± 0.5 ng/mL
  Plasma Cholesterol: 118.13 ± 8.39 mg/dL
  Plasma HDL: 145.41 ± 11.48 mg/dL
  Plasma LDL: 23.58 ± 2.93 mg/dL
  Plasma Triglyceride: 156.87 ± 17.41 mg/dL
  Absolute Liver Weight: 2.34 ± 0.07 g
  Absolute Liver Weight (g) [table follows b2014 on epididymal adipose tissue weight]: 2.42 ± 0.10 g
  Relative Epididymal Tissue Weight: 0.057 ± 0.002 g
  Relative Liver Weight: 0.055 ± 0.001 g
db/db mice; 30 mg/kg p.o. QD, Day 36
  Fasting Blood Glucose (~12 hrs): 335.70 ± 16.88 mg/dL
db/db mice; 30 mg/kg p.o. QD, day 32
  Urine Glucose: 1694.43 ± 10.56 mg/dL
db/db mice; 30 mg/kg, OGTT day 21
  15 min Plasma Glucose (mg/dL), OGTT: 676.20 ± 19.94 mg/dL
  30 min Plasma Glucose (mg/dL), OGTT: 619.54 ± 26.68 mg/dL
  60 min Plasma Glucose (mg/dL), OGTT: 520.87 ± 46.63 mg/dL
  120 min Plasma Glucose (mg/dL), OGTT: 397.78 ± 9.65 mg/dL
  glucose area under the curve (AUC), OGTT: 61613.10 ± 2572.98 mg·min/dL
db/db mice; 30 mg/kg
  Fasting Plasma Glucose (mg/dL), OGTT: 287.70 ± 34.54 mg/dL
db/db mice; 30 mg/kg, statistically not significant
  decrease in the plasma glucose compared to vehicle control (OGTT): 7.5%
db/db mice; 50 mg/kg p.o. QD
  Fasting Fructosamine: 954.2 ± 45.6 ng/mL
  Fasting Plasma HbA1c: 39.82 ± 4.31 ng/mL
  Fasting Plasma Insulin: 5.2 ± 0.8 ng/mL
  Plasma Cholesterol: 97.30 ± 8.76 mg/dL
  Plasma HDL: 110.76 ± 9.17 mg/dL
  Plasma LDL: 14.78 ± 1.62 mg/dL
  Plasma Triglyceride: 97.55 ± 11.60 mg/dL
  Absolute Liver Weight: 2.34 ± 0.06 g
  Absolute Liver Weight (g) [table follows b2014 on epididymal adipose tissue weight]: 2.58 ± 0.07 g
  Relative Epididymal Tissue Weight: 0.061 ± 0.001 g
  Relative Liver Weight: 0.056 ± 0.001 g
db/db mice; 50 mg/kg, OGTT day 21
  15 min Plasma Glucose (mg/dL), OGTT: 670.72 ± 23.88 mg/dL
  30 min Plasma Glucose (mg/dL), OGTT: 560.85 ± 37.42 mg/dL
  60 min Plasma Glucose (mg/dL), OGTT: 485.98 ± 32.31 mg/dL
  120 min Plasma Glucose (mg/dL), OGTT: 378.40 ± 18.24 mg/dL
  glucose area under the curve (AUC), OGTT: 57436.00 ± 2283.79 mg·min/dL
db/db mice; 50 mg/kg
  Fasting Plasma Glucose (mg/dL), OGTT: 204.64 ± 29.60 mg/dL
db/db mice; 50 mg/kg, significant
  decrease in the plasma glucose compared to vehicle control (OGTT): 14%
db/db mice; 30 & 50 mg/kg p.o. QD, day 21, 28, and 36
  fasting blood glucose levels compared with vehicle control, dose dependence: dose-dependent decrease
db/db mice; 30 and 50 mg/kg oral, daily for 36 days
  clinical signs, morbidity, mortality: no observations of clinical signs or morbidity, and no mortality
db/db mice; 30 and 50 mg/kg, OGTT day 21
  glucose as measured by area under the curve (AUC), dose dependence: dose dependent decreases
HCM cells
  toxicity compared to reference compounds MK-8722 and PF-06409577 (G6PD release): less toxicity
[1]
  p-ACC/p-AMPK and AMPKα2β2γ3 expression: did not activate
